Data on ten molecules can be found in ChEMBL document CHEMBL2417377, “Hit-to-lead optimization and kinase selectivity of imidazo[1,2-a]quinoxalin-4-amine derived JNK1 inhibitors” (Bioorg Med Chem Lett, 2013).

Where only a bound is given, the exact number is not on record here.

For assay [1], the target named is T1, Dual specificity mitogen-activated protein kinase kinase 3 (Homo sapiens) (UniProt P46734).
T1 sequence (whole entry): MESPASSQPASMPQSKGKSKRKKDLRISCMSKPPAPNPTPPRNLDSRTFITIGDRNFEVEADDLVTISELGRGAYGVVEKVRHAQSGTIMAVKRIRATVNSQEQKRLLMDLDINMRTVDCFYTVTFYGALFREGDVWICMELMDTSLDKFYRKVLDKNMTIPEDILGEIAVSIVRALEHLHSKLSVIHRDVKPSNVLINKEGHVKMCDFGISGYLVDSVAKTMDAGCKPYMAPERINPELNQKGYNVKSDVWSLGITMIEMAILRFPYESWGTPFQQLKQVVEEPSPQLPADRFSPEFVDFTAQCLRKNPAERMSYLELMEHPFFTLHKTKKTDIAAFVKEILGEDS
The assay can be described thus: Inhibition of MAP2K3 in human PC3 cell lysates at 10 uM using desthiobiotin-tagged ATP probe AX9989 followed by trypsinization by LC/MS analysis. The note with it: PC-3.

Assay [2] has as its target Serine/threonine-protein kinase 10 (Homo sapiens) (UniProt O94804). Kind of assay: Inhibition of LOK in human PC3 cell lysates at 10 uM using desthiobiotin-tagged ATP probe AX9989 followed by trypsinization by LC/MS analysis. Particulars: PC-3.
Assay [3] deals with PC-3. Kind of assay: Inhibition of KHS2 in human PC3 cell lysates at 10 uM using desthiobiotin-tagged ATP probe AX9989 followed by trypsinization by LC/MS analysis. The assay is classed as cell-free.
The target in assay [4] is Tyrosine-protein kinase Fyn (Homo sapiens) (UniProt P06241). The assay can be described thus: Inhibition of FYN in human PC3 cell lysates at 10 uM using desthiobiotin-tagged ATP probe AX9989 followed by trypsinization by LC/MS analysis. Particulars: PC-3.
Assay [5] has as its target Mitogen-activated protein kinase 3 (Homo sapiens) (UniProt P27361). Kind of assay: Inhibition of Erk1 in human PC3 cell lysates at 10 uM using desthiobiotin-tagged ATP probe AX9989 followed by trypsinization by LC/MS analysis. The note with it: PC-3.
In assay [6] the target is Serine/threonine-protein kinase Chk2 (Homo sapiens) (UniProt O96017). Kind of assay: Inhibition of CHK2 in human PC3 cell lysates at 10 uM using desthiobiotin-tagged ATP probe AX9989 followed by trypsinization by LC/MS analysis. Particulars: PC-3.
The target of assay [7] is AMPK alpha1/alpha2 (Homo sapiens) (UniProt P54646+Q13131). Kind of assay: Inhibition of AMPKalpha1/AMPKalpha2 in human PC3 cell lysates at 10 uM using desthiobiotin-tagged ATP probe AX9989 followed by trypsinization by LC/MS analysis. It is filed as protein-complex assay. Particulars: PC-3.
In assay [8] the target is T2, Eukaryotic translation initiation factor 2-alpha kinase 3 (Homo sapiens) (UniProt Q9NZJ5).
T2 sequence (whole entry): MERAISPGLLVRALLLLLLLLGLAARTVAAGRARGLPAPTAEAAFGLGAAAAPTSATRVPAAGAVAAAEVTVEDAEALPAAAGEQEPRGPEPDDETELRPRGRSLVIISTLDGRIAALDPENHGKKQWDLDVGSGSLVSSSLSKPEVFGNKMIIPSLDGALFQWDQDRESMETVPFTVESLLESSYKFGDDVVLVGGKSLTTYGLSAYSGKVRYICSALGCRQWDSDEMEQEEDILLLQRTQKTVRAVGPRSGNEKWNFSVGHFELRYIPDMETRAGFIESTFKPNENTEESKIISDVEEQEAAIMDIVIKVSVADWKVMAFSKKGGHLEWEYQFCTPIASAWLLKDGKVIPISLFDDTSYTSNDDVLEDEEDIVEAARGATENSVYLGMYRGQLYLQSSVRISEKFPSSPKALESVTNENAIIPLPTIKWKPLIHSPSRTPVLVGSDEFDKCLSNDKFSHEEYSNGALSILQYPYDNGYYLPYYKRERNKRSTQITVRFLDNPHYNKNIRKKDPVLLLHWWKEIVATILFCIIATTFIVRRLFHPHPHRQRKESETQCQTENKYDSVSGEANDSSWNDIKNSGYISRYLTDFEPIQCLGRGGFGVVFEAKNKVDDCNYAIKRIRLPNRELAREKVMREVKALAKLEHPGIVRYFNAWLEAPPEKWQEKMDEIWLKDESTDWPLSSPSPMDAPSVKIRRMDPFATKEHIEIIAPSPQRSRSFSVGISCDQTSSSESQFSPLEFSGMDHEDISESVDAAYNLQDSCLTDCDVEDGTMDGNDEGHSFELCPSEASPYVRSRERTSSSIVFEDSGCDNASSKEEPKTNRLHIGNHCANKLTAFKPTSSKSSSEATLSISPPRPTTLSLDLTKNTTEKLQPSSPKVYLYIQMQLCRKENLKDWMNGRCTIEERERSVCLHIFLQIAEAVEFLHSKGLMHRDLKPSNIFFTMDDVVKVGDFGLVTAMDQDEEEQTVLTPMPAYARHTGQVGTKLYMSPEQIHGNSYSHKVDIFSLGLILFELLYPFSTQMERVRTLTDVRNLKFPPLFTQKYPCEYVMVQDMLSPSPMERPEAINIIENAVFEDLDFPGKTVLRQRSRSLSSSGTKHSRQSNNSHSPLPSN
Kind of assay: Inhibition of PEK in human PC3 cell lysates at 10 uM using desthiobiotin-tagged ATP probe AX9989 followed by trypsinization by LC/MS analysis. Particulars: PC-3.

Assay [9] deals with Casein kinase I isoform alpha (Homo sapiens) (UniProt P48729). The assay can be described thus: Inhibition of CK1alpha in human PC3 cell lysates at 10 uM using desthiobiotin-tagged ATP probe AX9989 followed by trypsinization by LC/MS analysis. The note with it: PC-3.
The target of assay [10] is STE20-like serine/threonine-protein kinase (Homo sapiens) (UniProt Q9H2G2). Kind of assay: Inhibition of SLK in human PC3 cell lysates at 10 uM using desthiobiotin-tagged ATP probe AX9989 followed by trypsinization by LC/MS analysis. The note with it: PC-3.
Assay [11] concerns the target Serine/threonine-protein kinase MRCK beta (Homo sapiens) (UniProt Q9Y5S2). The assay can be described thus: Inhibition of MRCKbeta in human PC3 cell lysates at 10 uM using desthiobiotin-tagged ATP probe AX9989 followed by trypsinization by LC/MS analysis. The note with it: PC-3.
Assay [12] deals with MAP/microtubule affinity-regulating kinase 3 (Homo sapiens) (UniProt P27448). The assay can be described thus: Inhibition of MARK3 in human PC3 cell lysates at 10 uM using desthiobiotin-tagged ATP probe AX9989 followed by trypsinization by LC/MS analysis. The note with it: PC-3.

Casein kinase I isoform alpha (Homo sapiens), sequence (P48729 2-337 limits assumed): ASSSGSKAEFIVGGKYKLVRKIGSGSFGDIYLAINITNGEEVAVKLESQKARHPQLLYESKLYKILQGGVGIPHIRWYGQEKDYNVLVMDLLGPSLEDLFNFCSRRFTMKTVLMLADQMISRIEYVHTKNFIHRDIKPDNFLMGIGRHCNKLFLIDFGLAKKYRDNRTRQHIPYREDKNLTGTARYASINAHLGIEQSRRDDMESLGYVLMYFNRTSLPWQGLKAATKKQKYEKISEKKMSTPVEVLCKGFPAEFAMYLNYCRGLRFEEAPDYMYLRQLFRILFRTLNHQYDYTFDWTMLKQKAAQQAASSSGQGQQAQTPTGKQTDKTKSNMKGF
Serine/threonine-protein kinase 10 (Homo sapiens), sequence (O94804 whole entry, looked up): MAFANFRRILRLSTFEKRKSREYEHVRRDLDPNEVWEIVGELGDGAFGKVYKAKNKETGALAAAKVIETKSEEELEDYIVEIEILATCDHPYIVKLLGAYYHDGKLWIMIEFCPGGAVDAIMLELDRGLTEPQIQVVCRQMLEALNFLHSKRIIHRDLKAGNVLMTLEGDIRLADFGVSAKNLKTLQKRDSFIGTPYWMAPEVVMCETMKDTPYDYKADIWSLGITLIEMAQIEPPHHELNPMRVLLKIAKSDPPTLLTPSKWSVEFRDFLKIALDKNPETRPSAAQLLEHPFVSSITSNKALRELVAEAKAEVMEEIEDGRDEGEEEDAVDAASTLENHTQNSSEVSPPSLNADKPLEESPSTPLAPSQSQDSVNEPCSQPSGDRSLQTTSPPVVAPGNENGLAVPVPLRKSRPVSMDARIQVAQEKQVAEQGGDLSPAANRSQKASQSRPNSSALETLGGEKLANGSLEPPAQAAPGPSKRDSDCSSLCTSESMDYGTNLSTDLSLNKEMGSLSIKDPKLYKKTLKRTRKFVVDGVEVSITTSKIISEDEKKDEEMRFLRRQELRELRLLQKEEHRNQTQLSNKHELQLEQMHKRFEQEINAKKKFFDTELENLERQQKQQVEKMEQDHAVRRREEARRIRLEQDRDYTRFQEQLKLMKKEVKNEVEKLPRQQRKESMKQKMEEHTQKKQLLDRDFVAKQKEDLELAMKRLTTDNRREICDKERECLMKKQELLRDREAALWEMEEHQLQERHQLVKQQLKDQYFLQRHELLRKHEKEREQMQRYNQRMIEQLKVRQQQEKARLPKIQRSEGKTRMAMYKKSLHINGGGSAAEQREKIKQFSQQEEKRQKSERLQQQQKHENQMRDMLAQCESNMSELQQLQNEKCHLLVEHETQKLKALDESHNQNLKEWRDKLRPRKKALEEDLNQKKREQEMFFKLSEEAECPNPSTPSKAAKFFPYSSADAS
Serine/threonine-protein kinase MRCK beta (Homo sapiens), sequence (Q9Y5S2 whole entry): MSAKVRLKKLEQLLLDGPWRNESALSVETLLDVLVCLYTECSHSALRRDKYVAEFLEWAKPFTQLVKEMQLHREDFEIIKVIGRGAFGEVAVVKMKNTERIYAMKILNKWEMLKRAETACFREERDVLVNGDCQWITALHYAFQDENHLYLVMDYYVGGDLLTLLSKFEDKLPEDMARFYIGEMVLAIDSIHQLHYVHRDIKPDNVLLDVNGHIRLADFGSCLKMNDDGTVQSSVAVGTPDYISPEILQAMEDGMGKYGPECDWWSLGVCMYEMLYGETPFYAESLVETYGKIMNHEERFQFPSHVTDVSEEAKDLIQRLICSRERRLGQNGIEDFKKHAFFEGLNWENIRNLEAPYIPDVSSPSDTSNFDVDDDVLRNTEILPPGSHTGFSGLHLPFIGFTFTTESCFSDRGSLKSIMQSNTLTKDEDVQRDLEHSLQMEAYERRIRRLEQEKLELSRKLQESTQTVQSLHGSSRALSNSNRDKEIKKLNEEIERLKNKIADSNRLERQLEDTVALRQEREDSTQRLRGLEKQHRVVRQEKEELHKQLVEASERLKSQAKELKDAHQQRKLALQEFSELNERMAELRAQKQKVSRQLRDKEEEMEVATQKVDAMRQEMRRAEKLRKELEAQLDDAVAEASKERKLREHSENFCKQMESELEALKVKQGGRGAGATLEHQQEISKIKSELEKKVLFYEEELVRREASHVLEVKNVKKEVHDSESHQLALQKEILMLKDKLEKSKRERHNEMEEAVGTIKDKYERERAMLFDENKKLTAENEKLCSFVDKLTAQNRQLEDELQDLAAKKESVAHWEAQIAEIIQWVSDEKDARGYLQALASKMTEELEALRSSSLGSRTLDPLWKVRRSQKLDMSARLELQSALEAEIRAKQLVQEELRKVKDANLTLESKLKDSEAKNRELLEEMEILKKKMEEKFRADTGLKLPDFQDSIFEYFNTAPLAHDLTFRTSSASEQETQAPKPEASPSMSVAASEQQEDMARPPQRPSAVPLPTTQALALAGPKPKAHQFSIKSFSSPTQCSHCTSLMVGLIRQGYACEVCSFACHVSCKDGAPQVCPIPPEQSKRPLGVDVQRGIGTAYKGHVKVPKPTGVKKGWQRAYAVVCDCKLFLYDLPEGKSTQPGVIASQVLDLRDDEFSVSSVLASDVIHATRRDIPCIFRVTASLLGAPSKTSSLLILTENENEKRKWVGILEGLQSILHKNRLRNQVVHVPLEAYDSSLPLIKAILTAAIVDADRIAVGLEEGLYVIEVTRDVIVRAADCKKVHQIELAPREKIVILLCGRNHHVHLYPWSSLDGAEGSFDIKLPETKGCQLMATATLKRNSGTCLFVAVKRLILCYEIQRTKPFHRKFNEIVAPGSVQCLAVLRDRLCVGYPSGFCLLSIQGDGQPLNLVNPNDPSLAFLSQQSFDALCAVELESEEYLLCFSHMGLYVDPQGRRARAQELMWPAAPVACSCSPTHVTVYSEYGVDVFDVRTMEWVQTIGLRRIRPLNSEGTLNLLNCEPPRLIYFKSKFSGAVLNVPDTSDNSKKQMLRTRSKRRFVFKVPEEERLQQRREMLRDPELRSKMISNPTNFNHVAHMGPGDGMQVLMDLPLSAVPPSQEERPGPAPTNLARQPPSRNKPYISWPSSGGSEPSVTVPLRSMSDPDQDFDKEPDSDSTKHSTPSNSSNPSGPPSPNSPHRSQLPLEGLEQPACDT
AMPK alpha1/alpha2 (Homo sapiens), sequence (P54646 whole entry, looked up): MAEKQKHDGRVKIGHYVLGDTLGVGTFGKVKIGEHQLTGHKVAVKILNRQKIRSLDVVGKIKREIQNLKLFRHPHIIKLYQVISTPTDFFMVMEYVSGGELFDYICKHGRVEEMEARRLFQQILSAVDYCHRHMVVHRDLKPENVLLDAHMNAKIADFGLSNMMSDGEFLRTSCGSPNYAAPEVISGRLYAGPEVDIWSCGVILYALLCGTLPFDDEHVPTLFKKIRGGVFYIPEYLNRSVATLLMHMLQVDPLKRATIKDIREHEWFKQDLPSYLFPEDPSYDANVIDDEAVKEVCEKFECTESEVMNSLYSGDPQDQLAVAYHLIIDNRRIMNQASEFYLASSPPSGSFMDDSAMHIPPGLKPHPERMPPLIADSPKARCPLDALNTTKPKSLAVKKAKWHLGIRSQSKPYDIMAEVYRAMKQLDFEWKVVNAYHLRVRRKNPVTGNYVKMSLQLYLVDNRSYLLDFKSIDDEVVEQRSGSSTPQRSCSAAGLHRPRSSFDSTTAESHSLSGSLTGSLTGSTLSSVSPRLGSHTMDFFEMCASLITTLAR
AMPK alpha1/alpha2 (Homo sapiens), sequence (Q13131 whole entry, looked up): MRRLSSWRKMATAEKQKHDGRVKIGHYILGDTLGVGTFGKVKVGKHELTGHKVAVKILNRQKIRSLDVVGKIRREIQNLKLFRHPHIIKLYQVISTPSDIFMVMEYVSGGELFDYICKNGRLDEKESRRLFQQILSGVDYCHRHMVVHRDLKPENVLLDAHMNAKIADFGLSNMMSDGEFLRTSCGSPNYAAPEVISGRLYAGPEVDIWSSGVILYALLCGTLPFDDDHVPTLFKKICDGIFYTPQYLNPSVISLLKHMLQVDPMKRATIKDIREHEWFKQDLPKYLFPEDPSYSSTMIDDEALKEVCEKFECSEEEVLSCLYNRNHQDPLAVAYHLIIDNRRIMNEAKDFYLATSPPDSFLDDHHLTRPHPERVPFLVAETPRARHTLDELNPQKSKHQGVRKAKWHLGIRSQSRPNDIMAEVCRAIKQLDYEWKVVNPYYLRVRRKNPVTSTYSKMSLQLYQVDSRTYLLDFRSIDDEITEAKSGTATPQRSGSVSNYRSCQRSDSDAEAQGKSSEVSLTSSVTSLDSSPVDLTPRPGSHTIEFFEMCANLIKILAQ
Serine/threonine-protein kinase Chk2 (Homo sapiens), sequence (O96017 whole entry): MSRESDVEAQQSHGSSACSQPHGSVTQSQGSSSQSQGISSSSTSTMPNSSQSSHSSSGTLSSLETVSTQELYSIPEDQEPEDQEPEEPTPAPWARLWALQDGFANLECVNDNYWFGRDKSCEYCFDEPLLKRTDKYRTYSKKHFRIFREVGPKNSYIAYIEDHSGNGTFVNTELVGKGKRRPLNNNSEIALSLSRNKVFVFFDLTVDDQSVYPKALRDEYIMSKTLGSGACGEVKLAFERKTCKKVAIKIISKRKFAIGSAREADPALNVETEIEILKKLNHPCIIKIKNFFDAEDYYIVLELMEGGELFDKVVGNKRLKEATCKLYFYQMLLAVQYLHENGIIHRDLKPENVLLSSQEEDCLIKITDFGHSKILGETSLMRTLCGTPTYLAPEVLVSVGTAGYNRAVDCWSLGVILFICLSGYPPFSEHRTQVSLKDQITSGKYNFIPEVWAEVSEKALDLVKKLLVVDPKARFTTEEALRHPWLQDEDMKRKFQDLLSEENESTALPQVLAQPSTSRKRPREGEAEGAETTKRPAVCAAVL
Mitogen-activated protein kinase 3 (Homo sapiens), sequence (P27361 whole entry): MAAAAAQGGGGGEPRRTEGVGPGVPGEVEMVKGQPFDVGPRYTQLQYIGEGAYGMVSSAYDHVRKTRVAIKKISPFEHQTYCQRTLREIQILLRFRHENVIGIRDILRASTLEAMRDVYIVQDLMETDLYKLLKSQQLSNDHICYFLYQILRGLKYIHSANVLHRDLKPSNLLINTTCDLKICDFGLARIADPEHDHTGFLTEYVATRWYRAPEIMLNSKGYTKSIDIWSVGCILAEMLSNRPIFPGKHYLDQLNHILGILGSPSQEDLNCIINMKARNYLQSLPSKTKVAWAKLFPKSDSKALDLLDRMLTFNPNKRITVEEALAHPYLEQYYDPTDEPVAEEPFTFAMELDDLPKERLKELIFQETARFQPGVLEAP

As for `CC[C@@H](NC(=O)c1ccc2nc(N[C@H]3CC[C@H](O)CC3)c3nccn3c2c1)c1ccccc1`, the inhibition in [1], in [2], in assay [3], in assay [4], in [5] and in assay [6] was below 35% in each case. Moreover, the inhibition in assay [7], in assay [8], in assay [9], in assay [10], in assay [11] and in [12] was below 35% in each case.
Regarding `O=C(N[C@H](CO)c1ccccc1)c1ccc2nc(N[C@H]3CC[C@H](O)CC3)c3nccn3c2c1`, the inhibition (as a rule, the drop in the measured response relative to a control, in per cent) in assay [1] is below 35%; in [2] it was below 35%; in assay [3] it was below 35%; in [4], below 35%; in [5] it was below 35%; in assay [6], 45.6%. For the same molecule, the inhibition was 40.1% in assay [7]; below 35% in assay [8]; below 35% in assay [9]; below 35% in [10]; below 35% in assay [11]; below 35% in [12].
Consider `O=C(NC1(c2ccccc2)CCC1)c1ccc2nc(N[C@H]3CC[C@H](O)CC3)c3nccn3c2c1`, for which the inhibition in assay [1], in assay [2], in assay [3], in [4], in assay [5] and in assay [6] was below 35% each time. For the same molecule, the inhibition in [7], in assay [8], in assay [9], in assay [10], in assay [11] and in assay [12] was below 35% throughout.
For `CCC[C@@H](NC(=O)c1ccc2nc(N[C@H]3CC[C@H](O)CC3)c3nccn3c2c1)c1ccccc1`, the inhibition in assay [1], in assay [2], in assay [3], in [4], in [5] and in assay [6] was below 35% each time. Further, the inhibition in assay [7], in assay [8], in assay [9], in assay [10], in [11] and in assay [12] was below 35% each time.
Turning to `CC(C)(NC(=O)c1ccc2nc(N[C@H]3CC[C@H](O)CC3)c3nccn3c2c1)c1ccccc1`, the inhibition in assay [1], in [2], in assay [3], in assay [4], in [5] and in [6] was below 35% in each case. Further, the inhibition in assay [7], in [8], in [9], in assay [10], in assay [11] and in [12] was below 35% throughout.
For the molecule `O=C(O)c1ccc2nc(N[C@H]3CC[C@H](O)CC3)c3nccn3c2c1`, the inhibition is below 35% in [1]; below 35% in assay [2]; below 35% in assay [3]; below 35% in assay [4]; below 35% in assay [5]; 35% in assay [6]. In addition, the inhibition in [7] was below 35%; in assay [8], 37.5%; in assay [9] it was 57.1%; in assay [10], below 35%; in assay [11] it was below 35%; in assay [12], below 35%.
For the molecule `O=C(NC1(c2ccccc2)CC1)c1ccc2nc(N[C@H]3CC[C@H](O)CC3)c3nccn3c2c1`, the inhibition in [1], in assay [2], in assay [3], in [4], in assay [5] and in assay [6] was below 35% in each case. The inhibition in [7], in [8], in assay [9], in assay [10], in assay [11] and in assay [12] was below 35% in each case.
As for `NC(=O)c1ccc2nc(N[C@H]3CC[C@H](O)CC3)c3nccn3c2c1`, the inhibition in [1], in assay [2], in assay [3], in [4], in assay [5] and in assay [6] was below 35% throughout. The inhibition in assay [7] is below 35%; in assay [8], below 35%; in [9] it was 69%; in assay [10], below 35%; in [11], below 35%; in assay [12], below 35%.
Turning to `C[C@@H](NC(=O)c1ccc2nc(N[C@H]3CC[C@H](O)CC3)c3nccn3c2c1)c1ccccc1`, the inhibition in [1] is below 35%; in assay [2], below 35%; in [3], below 35%; in assay [4], below 35%; in assay [5], below 35%; in assay [6], 36.9%. Also, the inhibition in assay [7] was 43.2%; in [8], 38.4%; in [9], below 35%; in [10] it was below 35%; in [11], below 35%; in assay [12], below 35%.
Take `C[C@H](NC(=O)c1ccc2nc(N[C@H]3CC[C@H](O)CC3)c3nccn3c2c1)c1ccccc1`: the inhibition in assay [1], in assay [2], in [3], in assay [4], in assay [5] and in [6] was below 35% each time. Further, the inhibition in [7], in [8], in assay [9], in assay [10], in assay [11] and in [12] was below 35% each time.
